# From US20020137929A1, “1 - (3-heterocyclylphenyl) isothiourea, -isourea, -guanidine and -amidine herbicidal agents” (Intellectual Property Department, BASF Aktiengesellschaft, priority 1998, published 2002)
# Key:
# GALAP (Galium) = experiment: Postemergence herbicidal evaluation; format: in vivo, Galium aparine; settings: postemergence
# Method in brief: (§1)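 Visual 0–9 rating versus control (stand, vigor, malformation, size, chlorosis, overall appearance), taken four to five weeks post-spray. Two-week-old seedlings received roughly 0.0156–0.500 kg/ha active in acetone/water (50/50) with 0.5% TWEEN 20 via nozzle at 40 psi.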
# ABUTH (Velvetleaf) [1] = experiment: Postemergence herbicidal evaluation; format: in vivo, Abutilon theophrasti; settings: postemergence
# Method in brief: as §1
# CYPIR (Rice Flatsedge) [2] = experiment: Preemergence weed control under flooded paddy conditions; format: in vivo, Cyperus iria; settings: rated 3-4 weeks after treatment
# Method in brief: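 Herbicidal effect is scored visually on a 0-9 scale against an untreated control, three to four weeks after compounds are pipetted into the flood water (1.5 to 3 cm deep) over seeds planted in silt loam at 0.5 cm depth. Rates: about 0.0313 to 0.500 kg/ha.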
# ECHCG (Barnyardgrass) = experiment: Preemergence herbicidal evaluation; format: in vivo, Echinochloa crus-galli; settings: rated 4-5 weeks after treatment
# Method in brief: (§2)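 Each species is sown separately in potting soil over roughly an inch of soil before any emergence. The soil surface then receives an aqueous acetone spray delivering about 0.0156 to 0.500 kg/ha of compound. After four to five weeks, injury is scored from 0 to 9 relative to a control.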
# [3] = tested on: TRZAWR (Wheat, Winter, cv Riband); experiment: Preemergence herbicidal evaluation; format: in vivo, Triticum aestivum; settings: rated 4-5 weeks after treatment
# Method in brief: as §2
# [4] = tested on: SAGPY (Arrowhead (Pygmaea)); experiment: Preemergence weed control under flooded paddy conditions; format: in vivo, Sagittaria pygmaea; settings: rated 3-4 weeks after treatment
# Method in brief: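 Visual injury scored 0-9 against control three to four weeks post-treatment, greenhouse-grown. Application: acetone/water (50/50) solutions dosed directly into flood water (1.5-3 cm over silt loam, planted top 0.5 cm), roughly 0.0313 to 0.500 kg/ha active ingredient.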
# SETVI (Foxtail, Green) = experiment: Postemergence herbicidal evaluation; format: in vivo, Setaria viridis; settings: postemergence
# Method in brief: as §1
# AMBEL (Ragweed, Common) = experiment: Preemergence herbicidal evaluation; format: in vivo, Ambrosia artemisifolia; settings: rated 4-5 weeks after treatment
# Method in brief: as §2
# ABUTH (Velvetleaf) [5] = experiment: Preemergence herbicidal evaluation; format: in vivo, Abutilon theophrasti; settings: rated 4-5 weeks after treatment
# Method in brief: as §2
# CYPSE (Flatsedge) = experiment: Postemergence weed control under flooded paddy conditions; format: in vivo, Cyperus serotinus; settings: postemergence weeds, 3-4 weeks after treatment
# Method in brief: (§3)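 Injury ratings (0–9 scale covering stand, vigor, malformation, size, chlorosis and overall appearance versus control) were made three to four weeks after treatment. Test material, about 0.0313 to 0.500 kg/ha a.i. in 50/50 v/v aqueous/acetone, was added to flood water 1.5 to 3 cm deep over 3 to 5 cm weeds and 1.5 to 2.5 leaf rice.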
# CYPIR (Rice Flatsedge) [6] = experiment: as above; format: in vivo, Cyperus iria; settings: postemergence weeds, 3-4 weeks after treatment
# Method in brief: as §3
# CASOB (Sicklepod) = experiment: Postemergence herbicidal evaluation; format: in vivo, Cassia obtusifolia; settings: postemergence
# Method in brief: as §1
structure (smiles),measurement,setting,value
CC1SC(=Nc2cc(N3C(=O)C4=C(CCCC4)C3=O)c(F)cc2Cl)N(C)C1=O (stereo not drawn) [Compound 4],GALAP herbicidal rating,GALAP (Galium); rate 0.0313 kg/ha,0.0
same,GALAP herbicidal rating,GALAP (Galium); rate 0.0625 kg/ha,2.0
same,GALAP herbicidal rating,GALAP (Galium); rate 0.1250 kg/ha,2.0
same,GALAP herbicidal rating,GALAP (Galium); rate 0.5000 kg/ha,6.0
same,ABUTH herbicidal rating,ABUTH (Velvetleaf) [1]; rate 0.0313 kg/ha,2.0
same,ABUTH herbicidal rating,ABUTH (Velvetleaf) [1]; rate 0.0625 kg/ha,4.0
same,ABUTH herbicidal rating,ABUTH (Velvetleaf) [1]; rate 0.1250 kg/ha,9.0
same,ABUTH herbicidal rating,ABUTH (Velvetleaf) [1]; rate 0.2500 kg/ha,9.0
same,ABUTH herbicidal rating,ABUTH (Velvetleaf) [1]; rate 0.5000 kg/ha,9.0
same,Herbicidal rating CYPIR,CYPIR (Rice Flatsedge) [2]; 0.0313 kg/ha,0.0
same,Herbicidal rating CYPIR,CYPIR (Rice Flatsedge) [2]; 0.0625 kg/ha,4.0
same,Herbicidal rating CYPIR,CYPIR (Rice Flatsedge) [2]; 0.1250 kg/ha,8.0
same,Herbicidal rating CYPIR,CYPIR (Rice Flatsedge) [2]; 0.2500 kg/ha,9.0
same,Herbicidal rating CYPIR,CYPIR (Rice Flatsedge) [2]; 0.5000 kg/ha,9.0
same,ECHCG preemergence herbicidal rating,ECHCG (Barnyardgrass); rate 0.1250 kg/ha,0.0
same,ECHCG preemergence herbicidal rating,ECHCG (Barnyardgrass); rate 0.2500 kg/ha,2.0
same,ECHCG preemergence herbicidal rating,ECHCG (Barnyardgrass); rate 0.5000 kg/ha,6.0
same,TRZAWR preemergence herbicidal rating,[3]; rate 0.1250 kg/ha,2.0
same,TRZAWR preemergence herbicidal rating,[3]; rate 0.2500 kg/ha,3.0
same,TRZAWR preemergence herbicidal rating,[3]; rate 0.5000 kg/ha,3.0
same,Herbicidal rating SAGPY,[4]; 0.0313 kg/ha,0.0
same,Herbicidal rating SAGPY,[4]; 0.0625 kg/ha,0.0
same,Herbicidal rating SAGPY,[4]; 0.1250 kg/ha,0.0
same,Herbicidal rating SAGPY,[4]; 0.2500 kg/ha,0.0
same,Herbicidal rating SAGPY,[4]; 0.5000 kg/ha,0.0
same,SETVI herbicidal rating,"SETVI (Foxtail, Green); rate 0.0313 kg/ha",0.0
same,SETVI herbicidal rating,"SETVI (Foxtail, Green); rate 0.0625 kg/ha",2.0
same,SETVI herbicidal rating,"SETVI (Foxtail, Green); rate 0.1250 kg/ha",0.0
same,SETVI herbicidal rating,"SETVI (Foxtail, Green); rate 0.2500 kg/ha",2.0
same,SETVI herbicidal rating,"SETVI (Foxtail, Green); rate 0.5000 kg/ha",8.0
same,AMBEL preemergence herbicidal rating,"AMBEL (Ragweed, Common); rate 0.1250 kg/ha",0.0
same,AMBEL preemergence herbicidal rating,"AMBEL (Ragweed, Common); rate 0.2500 kg/ha",1.0
same,AMBEL preemergence herbicidal rating,"AMBEL (Ragweed, Common); rate 0.5000 kg/ha",4.0
same,ABUTH preemergence herbicidal rating,ABUTH (Velvetleaf) [5]; rate 0.1250 kg/ha,0.0
same,ABUTH preemergence herbicidal rating,ABUTH (Velvetleaf) [5]; rate 0.2500 kg/ha,2.0
same,ABUTH preemergence herbicidal rating,ABUTH (Velvetleaf) [5]; rate 0.5000 kg/ha,8.0
same,Herbicidal rating CYPSE,CYPSE (Flatsedge); rate 0.0313 kg/ha,0.0
same,Herbicidal rating CYPSE,CYPSE (Flatsedge); rate 0.0625 kg/ha,0.0
same,Herbicidal rating CYPSE,CYPSE (Flatsedge); rate 0.1250 kg/ha,0.0
same,Herbicidal rating CYPSE,CYPSE (Flatsedge); rate 0.2500 kg/ha,0.0
same,Herbicidal rating CYPSE,CYPSE (Flatsedge); rate 0.5000 kg/ha,0.0
same,Herbicidal rating CYPIR,CYPIR (Rice Flatsedge) [6]; rate 0.0313 kg/ha,0.0
same,Herbicidal rating CYPIR,CYPIR (Rice Flatsedge) [6]; rate 0.0625 kg/ha,2.0
same,Herbicidal rating CYPIR,CYPIR (Rice Flatsedge) [6]; rate 0.1250 kg/ha,4.5
same,Herbicidal rating CYPIR,CYPIR (Rice Flatsedge) [6]; rate 0.2500 kg/ha,6.5
same,Herbicidal rating CYPIR,CYPIR (Rice Flatsedge) [6]; rate 0.5000 kg/ha,9.0
same,CASOB herbicidal rating,CASOB (Sicklepod); rate 0.0313 kg/ha,0.0
same,CASOB herbicidal rating,CASOB (Sicklepod); rate 0.0625 kg/ha,0.0
same,CASOB herbicidal rating,CASOB (Sicklepod); rate 0.1250 kg/ha,0.0
same,CASOB herbicidal rating,CASOB (Sicklepod); rate 0.2500 kg/ha,0.0
same,CASOB herbicidal rating,CASOB (Sicklepod); rate 0.5000 kg/ha,2.0
